# Measured values taken from patent US20120010075A1 (priority 2009, published 2012).
# Read-outs that look alike come from different tables or passages of the source.
# What was measured:
# Phytophthora infestans = assay type: in vivo, Phytophthora infestans on tomato; conditions: applied 24 h before inoculation, assessed 7 days after inoculation
# [1] = test system: Leptosphaeria nodorum (LEPTNO); assay: In vitro fungitoxicity of hydrazones with and without copper towards Leptosphaeria nodorum (Example 26); assay type: cell-based; conditions: 72 h at 25° C.; for inhibition of growth at 0.05 µg/mL: Parastagonospora nodorum, 72 h, copper-minus medium, read-out: LEPTNO % Inhn. Minus Copper Observed
# [2] = hydrazone 50 ppm + 50 μM CuCl2.2H2O, tomato
# [3] = compound 0.05 μg/mL, copper-plus medium (CuCl2.2H2O)
# [4] = hydrazone 50 ppm with 50 μM CuCl2.2H2O, tomato late blight
# [5] = test compound Concn. 0.05 μg/mL
# [6] = copper-plus medium (CuCl2 10 μM), test compound Concn. 0.05 μg/mL
Compound,melting point [°C],TLB % Control (Phytophthora infestans; [2]) [%],inhibition of growth at 0.05 µg/mL ([1]; compound 0.05 μg/mL) [%],"LEPTNO % Inhn. Plus Copper Observed [1, 3] [%]",TLB % Control (Phytophthora infestans; [4]) [%],"inhibition of growth at 0.05 µg/mL [1, 5] [%]","LEPTNO % Inhn. Plus Copper Observed [1, 6] [%]"
C/C(=N\NC(=O)c1ccccc1Cl)c1cc(Br)ccc1O [Example 291],198 to 201,67.0,2.2,95.4,–,–,–
COc1ccc(/C(C)=N/NC(=O)c2ccccc2O)c(O)c1 [Example 473],276 to 278,–,–,–,78.0,0,97.5
Cc1cccc(O)c1/C=N/NC(=O)c1ccccc1 [Example 246],212 to 213,50.9,0,95.3,–,–,–
O=C(N/N=C/c1c(O)cccc1F)c1ccccc1 [Example 245],216 to 218,52.7,0,96.7,–,–,–
C/C(=N\NC(=O)c1ccc(C(F)(F)F)cc1)c1cc(Cl)ccc1O [Example 513],271 to 273,–,–,–,53.0,14,98.0
O=C(N/N=C/c1cc(Cl)cc(Cl)c1O)c1cccc(Oc2ccccc2)c1 [Example 46],170 to 171,72.7,20.5,95.9,–,–,–
C/C(=N\NC(=O)c1cccc(Cl)c1)c1cc(Br)ccc1O [Example 292],235 to 240,21.0,5,97.6,–,–,–
O=C(N/N=C/c1cc(Cl)cc(Cl)c1O)c1cc(Br)ccc1Cl [Example 98],191 to 192,79.7,16.8,98.1,–,–,–
O=C(N/N=C/c1c(Cl)ccc(Cl)c1O)c1cccc(F)c1 [Example 367],203 to 209,–,–,–,95.0,13.1,97.9
O=C(N/N=C/c1ccc(Cl)c(Cl)c1O)c1ccc([N+](=O)[O-])cc1 [Example 361],237 to 243,–,–,–,97.0,3.3,96.4
C/C(=N\NC(=O)c1ccc(C)cc1)c1cc(C)ccc1O [Example 314],206 to 208,–,–,–,8.8,0,97.7
COc1cccc(C(=O)N/N=C(\C)c2cc(Cl)cc(Cl)c2O)c1O [Example 484],258 to 259,–,–,–,88.0,12.6,93.2
O=C(N/N=C/c1cc(Cl)ccc1O)c1ccc(F)cc1 [Example 421],234 to 243,–,–,–,94.0,8.2,96.6
C/C(=N\NC(=O)c1ccccc1[N+](=O)[O-])c1cc(Cl)cc(Cl)c1O [Example 142],250 to 253,79.0,1.1,98.2,–,–,–
C/C(=N\NC(=O)c1ccccc1C)c1cc(C)ccc1O [Example 312],154 to 156,–,–,–,1.4,3.8,97.8
C/C(=N\NC(=O)c1ccc(C)cc1)c1cccc([N+](=O)[O-])c1O [Example 271],242 to 249,61.0,6.9,98.9,–,–,–
C/C(=N\NC(=O)c1cccc(C)c1)c1cc(Cl)ccc1O [Example 506],222 to 228,–,–,–,44.0,2.7,97.5

Compound,melting point [°C],TLB % Control (Phytophthora infestans; [2]) [%],inhibition of growth at 0.05 µg/mL ([1]; compound 0.05 μg/mL) [%],"LEPTNO % Inhn. Plus Copper Observed [1, 3] [%]",TLB % Control (Phytophthora infestans; [4]) [%],"inhibition of growth at 0.05 µg/mL [1, 5] [%]","LEPTNO % Inhn. Plus Copper Observed [1, 6] [%]"
O=C(N/N=C/c1c(O)cccc1Cl)c1ccc(F)cc1 [Example 401],266 to 268,–,–,–,98.0,0,94.8
C/C(=N\NC(=O)c1ccccc1Br)c1cc(Cl)ccc1O [Example 514],222 to 225,–,–,–,75.0,0,97.7
Cc1ccc(/C=N/NC(=O)c2ccccc2)c(O)c1 [Example 234],179 to 182,72.9,0,94.3,–,–,–
C/C(=N\NC(=O)c1ccc(C)cc1)c1cc(Cl)ccc1O [Example 507],221 to 228,–,–,–,66.0,7.6,97.0
O=C(N/N=C/c1c(O)cccc1Cl)c1cccc(Cl)c1 [Example 402],250 to 253,–,–,–,100.0,0,95.2
O=C(N/N=C/c1cc(Br)ccc1O)c1ccc(C(F)(F)F)cc1 [Example 184],219 to 222,70.9,7.1,97.0,–,–,–
COc1cccc(/C(C)=N/NC(=O)c2ccc(C(F)(F)F)cc2)c1O [Example 466],175 to 176,–,–,–,69.0,2.7,97.9
O=C(N/N=C/c1cc(Cl)cc(Br)c1O)c1ccccc1C(F)(F)F [Example 418],266 to 274,–,–,–,93.0,0,97.3
COc1cc(O)c(/C(C)=N/NC(=O)c2ccc(C(F)(F)F)cc2)c(OC)c1 [Example 571],131 to 133,–,–,–,31.0,0,84.7
COc1cccc(C(=O)N/N=C/c2cc(Cl)cc(Br)c2O)c1C [Example 132],187 to 189,65.5,9.1,97.7,–,–,–
C/C(=N\NC(=O)c1cccc(Cl)c1)c1cc(Cl)ccc1O [Example 509],244 to 249,–,–,–,85.0,0,96.2
C/C(=N\NC(=O)c1ccccc1C)c1cc(F)cc(F)c1O [Example 573],186 to 188,–,–,–,93.0,2.4,98.4
COc1ccc(C(=O)N/N=C(\C)c2ccc(Cl)cc2O)cc1 [Example 459],262 to 263,–,–,–,20.0,7.3,96.9
O=C(N/N=C/c1c(C(F)(F)F)ccc(Cl)c1O)c1cccc(F)c1 [Example 449],227 to 229,–,–,–,92.0,7.2,98.5
COc1ccc(C(=O)N/N=C(\C)c2cc(Cl)cc(Cl)c2O)cc1 [Example 469],226 to 227,–,–,–,95.0,1,97.8
O=C(N/N=C(\CCc1ccccc1)c1ccccc1O)c1c(Cl)cccc1Cl [Example 45],204 to 208,49.0,0,96.2,–,–,–
